Converted amounts (≈) assume the structure as drawn.
Experiments:
P. aeruginosa ATCC 27853 = experiment: antimicrobial serial microdilution, P. aeruginosa; type: cell-based; conditions: Pseudomonas aeruginosa, ATCC27853, 37 °C, 24 h
Description: (§1) The in vitro antifungal and antimicrobial activities were determined by testing the Schiff bases against the fungi Saccharomyces cerevisiae, Candida albicans, and Aspergillus niger and the bacteria Staphylococcus aureus, Enterococcus faecalis (Gram-positive), Pseudomonas aeruginosa, and Escherichia coli (Gram-negative).
(§2) The bacterial inoculum was prepared by emulsifying overnight colonies from an agar medium in broth (Mueller–Hinton broth). The suspensions were adjusted to a final organism density of 5 × 10^5 colony former units (cfu)/mL. […] The emulsifying of A. niger cultures was done by pouring 5 mL of saline and 0.1% of polysorbate 80 over the Petri dishes. Then, 100 µL of this suspension were diluted in 5 mL of saline and adjusted to an optical density of 0.1 at 530 nm. For S. cerevisiae, fresh exponential YPAD (yeast extract 1%, peptone 2%, adenine 0.004%, […]) cultures were adjusted to an optical density of 0.5 at 600 nm, and then diluted to the equivalent of 1 × 10^4 cells/mL (10^−3 dilution). Stock solutions of Schiff bases were prepared by dissolving them in DMSO at 10 mg/mL. […] The range of concentrations used was empirically selected for each organisms and the Schiff base. Drug sensitivities were assayed by serial dilutions in 96-well plates as previously described. A row with media and cells but without drug was the positive control. The blank was done by preparing a row with media and drugs, but without cells. Plates were fitted with a tight lid before incubation to prevent desiccation. […] The minimum bactericidal concentration (MBC) and fungicidal concentration (MFC) were determined by spreading 100 µL of culture from each well onto a plate (Mueller–Hinton agar for bacteria, Sabouraud dextrose agar for fungi except S. cerevisiae, and YPAD for S. cerevisiae).

[1] = system: Staphylococcus aureus ATCC 29213; experiment: antimicrobial serial microdilution, S. aureus; type: cell-based; conditions: serial microdilution, 37 °C, 24 h
Description: as §1, §2

RAW 264.7 cells = experiment: cell viability, MTT dye assay; type: cell-based, murine; conditions: RAW 264.7, exposure to 400 µM, 48 h
Description: The specificity and selectivity for the pathogen target is a key point for any potential drug.
The medium was renewed once a week. The viability was determined using MTT (thiazolyl blue tetrazolium bromide) dye assay as described previously for leishmanicidal activity assessment, with some variations. Here, 5 × 10^4 cells/well in a final volume of 100 µL were deposited into a 96-well plate in triplicate. Saponin (2 and 4 mg/mL) and untreated cells were used as the positive control and negative control, respectively. Schiff bases were dissolved in DMSO to obtain different serial concentrations (0.01–2000 µM). […] Cells were pelleted by centrifugation at 4400 rpm for 10 minutes and the media was removed. Next, 100 µL/well of DMSO were added and the absorbance at 570 nm was recorded. A reference wavelength of 630 nm was used for background subtraction.

[2] = DPPH radical scavenging assay; type: biochemical; conditions: 30 min, room temperature, dark, absorbance 515 nm
Description: This was used immediately. The experimental procedure was adapted from the literature. Briefly, in a 96-well plate, 100 µL of solution of DPPH (2, 2-diphenyl-1-picrylhydrazyl) radical (0.2 mM in methanol) was added to 100 µL of methanolic solutions of 3a–j, 4, or 5, prepared as serial two-fold dilutions from the stock solution. Standards were also prepared in the same concentrations.
The percentage of DPPH scavenging was then calculated by using the following formula: % DPPH scavenging=100∗Asample+DPPH−Asample blank/ADPPH−Asolvent

[3] = system: Candida albicans ATCC 10231; experiment: antimicrobial serial microdilution, C. albicans; type: cell-based; conditions: Candida albicans, ATCC10231; serial microdilution, 35 °C, 48 h
Description: as §1, §2

[4] = system: Enterococcus faecalis ATCC 29212; experiment: antimicrobial serial microdilution, E. faecalis; type: cell-based; conditions: serial microdilution, 37 °C, 24 h
Description: as §1, §2

[5] = system: Escherichia coli ATCC 25922; experiment: antimicrobial serial microdilution, E. coli; type: cell-based; conditions: serial microdilution, 37 °C, 24 h
Description: as §1, §2

[6] = system: Aspergillus niger ATCC 6275; experiment: antimicrobial serial microdilution, A. niger; type: cell-based; conditions: Aspergillus niger, ATCC6275; serial microdilution, 96-well plates, 35 °C, 48 h, max 2% DMSO
Description: as §1, §2

[7] = system: S. cerevisiae (backgrounds W303 and BY4741); experiment: antimicrobial serial microdilution, S. cerevisiae; type: cell-based, Saccharomyces cerevisiae; conditions: Saccharomyces cerevisiae; serial microdilution, 35 °C, 48 h; read-out: MIC S. cerevisiae
Description: as §1, §2

[8] = system: promastigotes from L. mexicana (M379); experiment: leishmanicidal activity, MTT colorimetric assay; type: cell-based; conditions: Leishmania mexicana, 48 h exposure, 1% DMSO
Description: Leishmanicidal activities of all Schiff bases were evaluated by measuring promastigote mitochondrial activity using MTT colorimetric assay as described previously. […] The medium was renewed every four days. Parasite density was determined in a Neubauer chamber.
Into each well of a 96-well cell culture dish was dispensed 1 × 10^6 parasites. A stock solution of each of the Schiff Base was prepared in DMSO, and serial dilutions were added to the parasite suspension, keeping the solvent concentration at 1%. The final volume was 100 µL for each well and triplicate conditions were carried out. Pentamidine treatment (100 µg/mL) and untreated parasites were used as positive control and negative control, respectively. After exposure to the compounds for 48 h in culture medium, 10 µL of a solution of 5 mg/mL MTT dissolved in PBS was added to each well. […] Later, the plate was centrifuged at 4400 rpm for 10 min and the culture medium was then aspirated. Next, 100 µL of DMSO were added into each well to solubilize the formazan and the plate was shaken for 5 min. The colored formazan salt was measured by recording changes in absorbance at 570 nm using a microplate reader, a BioTek Synergy HT spectrophotometer. A reference wavelength of 630 nm was used to subtract background. Optical densities were analyzed as the quantity of formazan is directly proportional to the number of viable parasites. Data were analyzed with the statistical software GraphPad Prism.

[9] = carcinogenicity group; ref IARC; cited from earlier work
[10] = Staphylococcus aureus, ATCC29213
[11] = Enterococcus faecalis, ATCC29212

SMILES | MIC (P. aeruginosa ATCC 27853) [µg/mL] | MIC [1, 10] [µg/mL] | % Live Cells (RAW 264.7 cells) [%] | IC50 [2] [µM] | MIC [3] [µg/mL] | MIC [4, 11] [µg/mL] | MIC ([5]; Escherichia coli, ATCC25922) [µg/mL] | MIC [6] [µg/mL] | MIC [7] [µg/mL] | IC50 [8] [µM] | IARC: group of classification of IARC [9] | other results
Cc1c(N=Cc2ccc(O)c(O)c2)c(=O)n(-c2ccccc2)n1C [Compound 3i, 4-(3,4-Dihydroxybenzylideneamino)-1,5-dimethyl-2-phenyl-1H-pyrazol-3(2H)-one] | > 200 | > 200 | 34.4 ± 2.4 | 18.9 ± 2.4 | > 200 | > 200 | > 200 | > 200 | > 200 | > 200 | – | –
O=c1[nH]cc(F)c(=O)[nH]1 [Fluorouracil] | – | – | – | – | – | – | – | – | – | – | 3 | –
N=C(N)c1ccc(OCCCCCOc2ccc(C(=N)N)cc2)cc1 [PT, pentamidine, reference compound] | – | – | – | – | – | – | – | – | – | 4.5 ± 0.46 | – | –
O=C1O[C@H]([C@@H](O)CO)C(O)=C1O [ascorbic acid, reference compound] | – | – | – | 14.5 ± 2.2 | – | – | – | – | – | – | – | –
COc1ccc(C=Nc2c(C)n(C)n(-c3ccccc3)c2=O)cc1 [Compound 3c, 4-(4-Methoxybenzylideneamino)-1,5-dimethyl-2-phenyl-1H-pyrazol-3(2H)-one] | > 200 | > 200 | 26.1 ± 1.9 | > 200 | > 200 | > 200 | > 200 | > 200 | > 200 | > 200 | – | –
COc1cc([C@@H]2c3cc4c(cc3[C@@H](O[C@@H]3O[C@@H]5CO[C@@H](C)O[C@H]5[C@H](O)[C@H]3O)[C@H]3COC(=O)[C@H]23)OCO4)cc(OC)c1O [Etoposide] | – | – | – | – | – | – | – | – | – | – | 1 | –
O=C(O)c1cn(C2CC2)c2cc(N3CCNCC3)c(F)cc2c1=O [CP, ciprofloxacin, reference compound] | 0.47 ± 0.1 (≈ 1.42 µM) | 0.44 ± 0.09 (≈ 1.33 µM) | – | – | – | 1.15 ± 0.42 (≈ 3.47 µM) | 0.15 ± 0.009 (≈ 0.453 µM) | – | – | – | – | IC50 (P. aeruginosa ATCC 27853): 0.94 µg/mL (≈ 2.84 µM); IC50 [1, 10]: 0.1 µg/mL (≈ 0.302 µM); NIC S. aureus ([1]; noninhibitory concentration): 0.06 ± 0.02 µg/mL; IC50 [4, 11]: 0.49 µg/mL (≈ 1.48 µM); NIC E. faecalis ([4]; noninhibitory concentration): 0.30 ± 0.07 µg/mL; IC50 ([5]; Escherichia coli, ATCC25922): 0.07 µg/mL (≈ 0.211 µM); NIC E. coli ([5]; noninhibitory concentration): 0.06 ± 0.003 µg/mL
Cc1c(/N=C/c2ccco2)c(=O)n(-c2ccccc2)n1C [Compound 4, 4-(2-furfurilideneamino)-1,5-dimethyl-2-phenyl-1H-pyrazol-3(2H)-one] | > 200 | > 200 | 23.8 ± 3.4 | > 200 | > 200 | > 200 | > 200 | > 200 | > 200 | > 200 | – | –
CN(Cc1cnc2nc(N)nc(N)c2n1)c1ccc(C(=O)N[C@@H](CCC(=O)O)C(=O)O)cc1 [Methotrexate] | – | – | – | – | – | – | – | – | – | – | 3 | –

Reference: publication PMC6696115, “Characterization of Antimicrobial, Antioxidant, and Leishmanicidal Activities of Schiff Base Derivatives of 4-Aminoantipyrine” (Molecules, 2019)
